Results as given in article PMC6277434, “Discovery of a potent HMG-CoA reductase degrader that eliminates statin-induced reductase accumulation and lowers cholesterol” (Nature Communications, 2018).
pEC50: −log10 of the molar value. Where “and” joins values, the source holds several entries; their conditions need not be identical. Equal entries are not always repeated.

Assays:
hERG potassium channel = hERG potassium channel (Homo sapiens, UniProt Q12809); assay: hERG electrophysiology patch-clamp assay (CHO-hERG cells, QPatch); conditions: even at 40 μM
hERG potassium channel, sequence (Q12809 whole entry): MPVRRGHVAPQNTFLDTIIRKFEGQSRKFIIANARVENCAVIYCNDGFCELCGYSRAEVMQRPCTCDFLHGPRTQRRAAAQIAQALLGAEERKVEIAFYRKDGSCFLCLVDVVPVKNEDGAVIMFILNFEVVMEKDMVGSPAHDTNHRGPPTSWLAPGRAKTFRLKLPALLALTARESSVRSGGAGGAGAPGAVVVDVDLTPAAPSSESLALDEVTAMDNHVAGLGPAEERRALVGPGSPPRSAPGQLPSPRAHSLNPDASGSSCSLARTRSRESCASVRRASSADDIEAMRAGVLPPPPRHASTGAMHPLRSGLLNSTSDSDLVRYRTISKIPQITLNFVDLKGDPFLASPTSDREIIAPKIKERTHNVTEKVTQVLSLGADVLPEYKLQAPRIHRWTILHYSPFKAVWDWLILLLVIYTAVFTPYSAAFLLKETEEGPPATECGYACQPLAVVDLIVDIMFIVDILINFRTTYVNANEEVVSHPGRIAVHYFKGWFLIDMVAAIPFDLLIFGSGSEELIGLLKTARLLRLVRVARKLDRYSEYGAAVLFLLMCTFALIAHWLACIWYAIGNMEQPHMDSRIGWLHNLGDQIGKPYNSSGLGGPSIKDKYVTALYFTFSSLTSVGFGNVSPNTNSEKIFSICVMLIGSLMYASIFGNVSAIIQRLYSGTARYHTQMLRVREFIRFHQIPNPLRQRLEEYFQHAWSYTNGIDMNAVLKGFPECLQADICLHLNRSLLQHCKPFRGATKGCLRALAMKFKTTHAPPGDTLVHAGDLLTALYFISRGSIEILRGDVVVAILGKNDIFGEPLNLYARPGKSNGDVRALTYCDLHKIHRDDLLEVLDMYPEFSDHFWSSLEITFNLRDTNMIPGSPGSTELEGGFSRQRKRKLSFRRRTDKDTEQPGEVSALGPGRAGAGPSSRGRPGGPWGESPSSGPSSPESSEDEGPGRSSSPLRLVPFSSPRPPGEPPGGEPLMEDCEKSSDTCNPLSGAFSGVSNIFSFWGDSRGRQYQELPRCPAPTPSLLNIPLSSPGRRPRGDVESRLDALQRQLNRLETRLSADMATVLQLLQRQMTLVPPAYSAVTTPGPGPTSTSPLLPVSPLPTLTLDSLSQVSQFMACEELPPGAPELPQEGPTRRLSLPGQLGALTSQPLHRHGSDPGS

HMGCR [1] = target: T1, HMGCR (Cricetulus griseus, UniProt P00347); assay: Immunoblotting of endogenous HMGCR protein in CHO-7 (or CHG) cells; format: cell-based, Chinese hamster; conditions: for endogenous HMGCR protein (immunoblot), mean: DMSO = 100; for HMGCR protein fold change: untreated = 1
T1 construct: endogenous in cells; host or cells: CHO-7, CHG, SRD-13A, SRD-15
T1 sequence (P00347 1-887): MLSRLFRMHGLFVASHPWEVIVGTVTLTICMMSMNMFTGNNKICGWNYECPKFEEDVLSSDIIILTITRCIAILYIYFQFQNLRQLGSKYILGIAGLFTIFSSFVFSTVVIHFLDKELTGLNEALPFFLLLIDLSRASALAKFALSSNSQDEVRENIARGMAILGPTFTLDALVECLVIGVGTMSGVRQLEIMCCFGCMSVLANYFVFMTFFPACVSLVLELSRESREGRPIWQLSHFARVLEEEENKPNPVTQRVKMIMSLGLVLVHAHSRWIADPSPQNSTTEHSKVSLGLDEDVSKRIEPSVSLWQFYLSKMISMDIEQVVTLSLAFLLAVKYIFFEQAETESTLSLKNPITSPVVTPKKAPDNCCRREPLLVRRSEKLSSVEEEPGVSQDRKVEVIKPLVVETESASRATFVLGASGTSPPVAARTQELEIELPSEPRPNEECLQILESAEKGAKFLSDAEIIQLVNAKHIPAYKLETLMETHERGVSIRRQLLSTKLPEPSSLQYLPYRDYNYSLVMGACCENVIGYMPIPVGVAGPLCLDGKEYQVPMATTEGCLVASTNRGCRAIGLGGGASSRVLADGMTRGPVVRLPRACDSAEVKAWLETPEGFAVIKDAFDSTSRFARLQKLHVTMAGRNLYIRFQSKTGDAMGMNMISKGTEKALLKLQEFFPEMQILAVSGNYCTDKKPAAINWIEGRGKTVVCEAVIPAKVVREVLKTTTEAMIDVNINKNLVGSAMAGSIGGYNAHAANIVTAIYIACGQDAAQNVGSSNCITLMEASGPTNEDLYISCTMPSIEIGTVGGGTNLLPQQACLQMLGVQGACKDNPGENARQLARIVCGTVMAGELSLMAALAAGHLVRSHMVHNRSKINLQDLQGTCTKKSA
Experimental: (§1) CHO-7 (Chinese hamster ovary cell, a clone of CHO-K1 cell line selected for growth in LPDS) and Huh7 (a human hepatocellular carcinoma cell line), SRD-13A (a Scap-deficient CHO-7 cell line) and SRD-15 (an Insig-1 and Insig-2-deficient CHO-7 cell line) were generous gifts from Russell Debose-Boyd at UT Southwestern Medical Center, USA. All cells were grown in a monolayer at 37 °C with 5% CO2. Huh7 cells were maintained in medium A supplemented with 10% FBS. CHO-7 and SRD-15 cells were maintained in medium B supplemented with 5% FBS. SRD-13A cells were maintained in medium B with 5% FBS, 5 μg ml^−1 cholesterol, 1 mM sodium mevalonate, 10 μM sodium oleate. No cell lines used in this study were found in the database of commonly misidentified cell lines that is maintained by ICLAC and NCBI Biosample. The cell lines have not been authenticated recently. No test for mycoplasma contamination was performed.
(§2) Cells were harvested and homogenized in the RIPA buffer (50 mM Tris-HCl, pH 8.0, 150 mM NaCl, 2 mM MgCl2, 1.5% NP-40, 0.1% SDS, and 0.5% sodium deoxycholate) supplemented with protease cocktail inhibitor, 10 μM MG-132, 10 μg ml^−1 leupeptin and 1 mM phenylmethylsulfonyl fluoride. The protein concentrations of lysates were determined using BCA method (Beyotime). Samples were mixed with the membrane protein solubilization buffer (62.5 mM Tris-HCl, pH 6.8, 15% SDS, 8 M urea, 10% glycerol, and 100 mM DTT) plus the 4× loading buffer (150 mM Tris-HCl, pH 6.8, 12% SDS, 30% glycerol, 6% 2-mercaptoethanol, and 0.02% bromophenol blue) and incubated for 30 min at 37 °C. Proteins were resolved by SDS-PAGE and transferred to nitrocellulose membranes (GE Healthcare). Immnoblots were blocked with 5% non-fat milk in TBS containing 0.075% Tween-20 (TBST) and probed with indicated antibodies overnight at 4 °C. After washing in TBST for five times, blots were incubated with HRP-conjugated secondary antibodies for 2 h at room temperature. Immunoreactivity was developed with Clarity Western ECL chemiluminescent substrates (170–5061, Bio-Rad). Western blot images were captured by Amersham Imager 600 (GE Healthcare), and integrated optical intensities of each band were quantified by Image-Pro Plus 6 software (Media Cybernetics). Uncropped blots are shown in Supplementary Figs. 9–13.

HMGCR [2] = target: T1, HMGCR; assay: Immunoblotting of HMGCR in SRD-15 (Insig-1 and Insig-2-deficient) cells; format: cell-based, Chinese hamster; conditions: SRD-15 cells
Experimental: as §1, with “The cell lines have not been authenticated recently. No test for mycoplasma contamination was performed.” left out
Cells were harvested and homogenized in the RIPA buffer (50 mM Tris-HCl, pH 8.0, 150 mM NaCl, 2 mM MgCl2, 1.5% NP-40, 0.1% SDS, and 0.5% sodium deoxycholate) supplemented with protease cocktail inhibitor, 10 μM MG-132, 10 μg ml^−1 leupeptin and 1 mM phenylmethylsulfonyl fluoride. The protein concentrations of lysates were determined using BCA method (Beyotime). […] Western blot images were captured by Amersham Imager 600 (GE Healthcare), and integrated optical intensities of each band were quantified by Image-Pro Plus 6 software (Media Cybernetics). […]

Hmgcr mRNA = assay: RT-qPCR of hepatic Hmgcr mRNA of gavaged mice; format: in vivo; conditions: C57BL/6J mice, 60 mg/kg/day gavage once daily 7 days
Experimental: Cells were treated as described in corresponding figure legends, then total RNA was extracted from cells or mouse livers using TRI Reagent ([…], Sigma-Aldrich). Equal amounts of RNA from cells or mice receiving the same treatment were pooled were used for cDNA synthesis with oligo dT and reverse transcriptase MLV (Promega). Gene expression was analyzed by quantitative real-time PCR on a Stratagene […] Systems. The primers used were listed in Supplementary Tables 2-4. Male C57BL/6 mice (8-week-old) were obtained from Shanghai Laboratory Animal Company (SLAC) (Shanghai, China). Male Ldlr^-/- mice (8-week-old) were obtained from Nanjing Biomedical Research Institute of Nanjing University (Nanjing, China). […] Mice were maintained in a pathogen-free environment and kept on a 12-h light/dark schedule. Mice were gavaged as described in figure legends with saline containing 0.5% methyl cellulose and 0.5% Tween-80. All mice were used in accordance with the guidelines approved by the Institutional Animal Care and Use Committee of Wuhan University.

HMGCR [3] = target: T1, HMGCR; assay: Immunoblotting of HMGCR protein in SRD-13A (Scap-deficient CHO-7) cells; format: cell-based, Chinese hamster; conditions: for HMGCR protein level, mean: SRD-13A, 16 h
Experimental: as §1, §2

SMILES: C=CCC(O)(CC=C)CCCC(C)C1CCC2C3C(O)C=C4C(C)(C)C(O)CCC4(C)C3CCC12C (stereo not shown) [Cmpd 81]
- inhibition of hERG peak tail currents (hERG potassium channel): no inhibition effect
- endogenous HMGCR protein (immunoblot), mean (HMGCR [1]; CHO-7, 0.01 uM, 16 h): 96.5896
- endogenous HMGCR protein (immunoblot), mean (HMGCR [1]; CHO-7, 0.03 uM, 16 h): 105.12
- endogenous HMGCR protein (immunoblot), mean (HMGCR [1]; CHO-7, 0.1 uM, 16 h): 84.2505
- endogenous HMGCR protein (immunoblot), mean (HMGCR [1]; CHO-7, 0.3 uM, 16 h): 66.4121
- endogenous HMGCR protein (immunoblot), mean (HMGCR [1]; CHO-7, 1 uM, 16 h): 9.931
- endogenous HMGCR protein (immunoblot), mean (HMGCR [1]; CHO-7, 3 uM, 16 h): 3.826
- HMGCR degradation induced by Cmpd 81 on addition of proteasome inhibitor MG-132 (HMGCR [1]; CHO-7, 10 μM MG-132, 5 h): completely blocked
- endogenous HMGCR protein (immunoblot), mean (HMGCR [1]; CHO-7, 10 uM, 16 h): 1.121
- endogenous HMGCR protein (immunoblot), mean (HMGCR [1]; CHO-7, 20 uM, 16 h): 1.6114
- HMGCR protein fold change (HMGCR [1]; CHO-7, Cmpd 81 1 μM with lovastatin 1 μM): 5.141
- HMGCR protein fold change (HMGCR [1]; CHO-7, Cmpd 81 1 μM, without lovastatin): 0.3231
- HMGCR protein fold change (HMGCR [1]; CHO-7, Cmpd 81 3 μM with lovastatin 1 μM): 1.706
- HMGCR protein fold change (HMGCR [1]; CHO-7, Cmpd 81 3 μM, without lovastatin): 0.1204
- HMGCR protein fold change (HMGCR [1]; CHO-7, Cmpd 81 10 μM with lovastatin 1 μM): 0.399
- reduction in HMGCR (HMGCR [1]; CHO-7 cells, 1 μM, 16 h): more than 80%
- pEC50 (HMGCR [1]; CHO-7 cells, 16 h, read-out: EC50 to decrease endogenous HMGCR (dose–response immunoblotting)): 6.41
- HMGCR protein induced by simvastatin, pravastatin, fluvastatin, atorvastatin and rosuvastatin (HMGCR [1]; cultured cells): similarly reduced
- Cmpd 81-induced disappearance of endogenous HMGCR in cells lacking Insig-1 and Insig-2 (HMGCR [2]): completely abolished

SMILES: CC[C@H](C)C(=O)O[C@H]1C[C@@H](C)C=C2C=C[C@H](C)[C@H](CC[C@@H]3C[C@@H](O)CC(=O)O3)[C@H]21 [Lovastatin, lovastatin]
- hepatic Hmgcr mRNA level, mean (Hmgcr mRNA; vehicle = 1): 2.5 ± 0.2 fold and 2.537 fold
- hepatic Hmgcr mRNA level, single values (Hmgcr mRNA; vehicle = 1): 2.5 and 2.78 and 2.33
- hepatic Hmgcr mRNA level, mean (Hmgcr mRNA; vehicle = 1, listed as lovastatin): 2.5 fold
- increase of HMGCR protein (HMGCR [3]; SRD-13A cells, lovastatin 16 h): ≤ 8 fold
- HMGCR protein level, mean (HMGCR [3]; lovastatin 0.001 uM): 0.9418
- HMGCR protein level, mean (HMGCR [3]; lovastatin 0.003 uM): 1.178
- HMGCR protein level, mean (HMGCR [3]; lovastatin 0.01 uM): 2.758
- HMGCR protein level, mean (HMGCR [3]; lovastatin 0.03 uM): 4.962
- HMGCR protein level, mean (HMGCR [3]; lovastatin 0.1 uM): 7.087
- HMGCR protein level, mean (HMGCR [3]; lovastatin 0.3 uM): 7.139
- HMGCR protein level, mean (HMGCR [3]; lovastatin 1 uM): 8.174
- HMGCR protein level, mean (HMGCR [3]; lovastatin 3 uM): 8.262
- HMGCR protein level, mean (HMGCR [3]; lovastatin 10 uM): 7.249
- HMGCR protein level, mean (HMGCR [1]; CHO-7, lovastatin 0.001 uM, 16 h, DMSO = 1): 1.706
- HMGCR protein level, mean (HMGCR [1]; CHO-7, lovastatin 0.003 uM, 16 h, DMSO = 1): 2.872
- HMGCR protein level, mean (HMGCR [1]; CHO-7, lovastatin 0.01 uM, 16 h, DMSO = 1): 6.395
- HMGCR protein level, mean (HMGCR [1]; CHO-7, lovastatin 0.03 uM, 16 h, DMSO = 1): 10.2955
- HMGCR protein level, mean (HMGCR [1]; CHO-7, lovastatin 0.1 uM, 16 h, DMSO = 1): 11.6269
- HMGCR protein level, mean (HMGCR [1]; CHO-7, lovastatin 0.3 uM, 16 h, DMSO = 1): 13.3691
- HMGCR protein fold change (HMGCR [1]; CHO-7, lovastatin 1 μM alone): 16.2295
- HMGCR protein level, mean (HMGCR [1]; CHO-7, lovastatin 1 uM, 16 h, DMSO = 1): 14.123
- HMGCR protein level, mean (HMGCR [1]; CHO-7, lovastatin 3 uM, 16 h, DMSO = 1): 14.7817
- HMGCR protein level, mean (HMGCR [1]; CHO-7, lovastatin 10 uM, 16 h, DMSO = 1): 14.2587
- increase of HMGCR protein (maximum increment) (HMGCR [1]; CHO-7 cells, statin 16 h, DMSO = 1): ~ 15 fold
